Measurements as given in US11053235B2, “Substituted 1,4-dihydropyrimidines for the treatment of HBV infection or HBV-induced diseases” (Janssen Sciences Ireland Unlimited Company, priority 2018, dated 2021).
Counter-ions that a name gives are not always drawn. Like-named read-outs stand apart in the source and are kept apart here.

Columns and labels:
HBV = experiment: Anti-viral assay in HepG2.2.15 cells: HBV inhibitory activity (HBV DNA in culture medium by q-PCR); assay type: cell-based; conditions: Hepatitis B virus, HepG2.2.15, 144 h
In short: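 HepG2.2.15 cells seeded at 40,000/well in 2% FBS medium, dosed next day for 6 days (medium refreshed once midway); 8-point 3-fold dilutions from 10 uM top. HBV DNA in culture medium extracted and quantified by q-PCR; EC50 calculated from dose-response.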

[1] = Cytotoxicity determination in HepG2.2.15 cells (CCK-8); assay type: cell-based; conditions: human, 6 days treatment, CCK-8, highest concentration 100 uM
In short: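 HepG2.2.15 cells seeded at 5,000 cells/well in 2% FBS medium and exposed to compounds for 6 days (medium refreshed once), 8 three-fold dilutions from 100 uM. Viability read by CCK-8 after 2.5 h at 37 °C, absorbance 450 nm with 630 nm reference; CC50 calculated.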

[2] = HepG2.2.15 cells, 6 days treatment, HBV DNA in culture medium by q-PCR, highest concentration 10 uM, read-out: EC50

Q: What does the source list for CCOC(=O)C1=C(C2CCN(c3ncc(C(=O)O)c(C)n3)CC2)NC(c2nccs2)=NC1c1ccc(F)c(F)c1Cl (single isomer, unassigned) [II-73-B, 2-(4-(6-(2-Chloro-3,4-difluorophenyl)-5-(ethoxycarbonyl)-2-(thiazol-2-yl)-3,6-dihydropyrimidin-4-yl)piperidin-1-yl)-4-methylpyrimidine-5-carboxylic Acid]?
A: EC50 (HBV; [2]): 25 nM; CC50 at 6 days [1]: 5920 nM

Q: What does the source list for CCOC(=O)C1=C(C2CCN(c3ncc(C(=O)O)cn3)CC2)NC(c2nccs2)=NC1c1ccc(F)c(F)c1Cl (single isomer, unassigned) [II-74-B, 2-(4-(6-(2-Chloro-3,4-difluorophenyl)-5-(ethoxycarbonyl)-2-(thiazol-2-yl)-3,6-dihydropyrimidin-4-yl)piperidin-1-yl)pyrimidine-5-carboxylic Acid]?
A: EC50 (HBV; [2]): 6.6 nM; CC50 at 6 days [1]: 9310 nM

Q: Which EC50 (HBV; [2]) does the source give for CCOC(=O)C1=C(C2CCN(c3nncs3)CC2)NC(c2nccs2)=NC1c1ccc(F)c(F)c1Cl (single isomer, unassigned) [II-75-X, Ethyl 6-(1-(1,3,4-thiadiazol-2-yl)piperidin-4-yl)-4-(2-chloro-3,4-difluorophenyl)-2-(thiazol-2-yl)-1,4-dihydropyrimidine-5-carboxylate] here?
A: 30 nM

Q: What about the CC50 at 6 days [1] of the same molecule?
A: 9810 nM

Q: For CCOC(=O)C1=C(C2CCN(c3cnc(C(=O)O)s3)CC2)NC(c2nccs2)=NC1c1ccc(F)c(F)c1Cl (single isomer, unassigned) [II-76-B, 5-(4-(6-(2-Chloro-3,4-difluorophenyl)-5-(ethoxycarbonyl)-2-(thiazol-2-yl)-3,6-dihydropyrimidin-4-yl)piperidin-1-yl)thiazole-2-carboxylate lithium salt], which EC50 (HBV) is on record?
A: 90 nM

Q: What about the CC50 at 6 days [1] of the same molecule?
A: 6680 nM

Q: With CCOC(=O)C1=C(C2CCN(c3nc(COC)c(C(=O)O)s3)CC2)NC(c2nccs2)=NC1c1ccc(F)c(F)c1Cl (single isomer, unassigned) [II-77-B, 2-(4-(6-(2-Chloro-3,4-difluorophenyl)-5-(ethoxycarbonyl)-2-(thiazol-2-yl)-3,6-dihydropyrimidin-4-yl)piperidin-1-yl)-4-(methoxymethyl)thiazole-5-carboxylic Acid] as the molecule, how does the EC50 (HBV; [2]) read?
A: 29 nM

Q: And the CC50 at 6 days [1]?
A: 9740 nM

Q: Which results are given for CCOC(=O)C1=C(C2CCN(c3ncc(C(=O)O)s3)CC2)NC(c2nccs2)=NC1c1ccc(F)c(F)c1Cl (single isomer, unassigned) [II-78-B, 2-(4-(6-(2-Chloro-3,4-difluorophenyl)-5-(ethoxycarbonyl)-2-(thiazol-2-yl)-3,6-dihydropyrimidin-4-yl)piperidin-1-yl)thiazole-5-carboxylic Acid]?
A: EC50 (HBV; [2]): < 4.6 nM; CC50 at 6 days [1]: 12100 nM

Q: Which EC50 (HBV; [2]) does the source give for CCOC(=O)C1=C(C2CCN(c3nc(C(F)(F)F)c(C(=O)O)s3)CC2)NC(c2nccs2)=NC1c1ccc(F)c(F)c1Cl (single isomer, unassigned) [II-79-B, 2-(4-(6-(2-Chloro-3,4-difluorophenyl)-5-(ethoxycarbonyl)-2-(thiazol-2-yl)-3,6-dihydropyrimidin-4-yl)piperidin-1-yl)-4-(trifluoromethyl)thiazole-5-carboxylic Acid] here?
A: 13 nM

Q: And the CC50 at 6 days [1]?
A: 1140 nM

Q: For CCOC(=O)C1=C(C2CCN(c3nc(C(=O)O)cs3)CC2)NC(c2nccs2)=NC1c1ccc(F)c(F)c1Cl (single isomer, unassigned) [II-80-B, 2-(4-(6-(2-Chloro-3,4-difluorophenyl)-5-(ethoxycarbonyl)-2-(thiazol-2-yl)-3,6-dihydropyrimidin-4-yl)piperidin-1-yl)thiazole-4-carboxylic Acid], which EC50 (HBV; [2]) is on record?
A: 45 nM

Q: What about the CC50 at 6 days [1] of the same molecule?
A: 10200 nM

Q: For COC(=O)C1=C(C2CCN(c3ncc(C)c(C(=O)O)n3)CC2)NC(c2nccs2)=NC1c1ccc(Br)cc1Cl (single isomer, unassigned) [II-81-B, 2-(4-(6-(4-bromo-2-chlorophenyl)-5-(methoxycarbonyl)-2-(thiazol-2-yl)-3,6-dihydropyrimidin-4-yl)piperidin-1-yl)-5-methylpyrimidine-4-carboxylic Acid], which EC50 (HBV; [2]) is on record?
A: 54 nM

Q: What about the CC50 at 6 days [1] of the same molecule?
A: 12400 nM

Q: For COC(=O)C1=C(C2CCN(c3ncc(C(=O)O)s3)CC2)NC(c2nccs2)=NC1c1ccc(F)c(F)c1Br (single isomer, unassigned) [II-82-B, 2-(4-(6-(2-Bromo-3,4-difluorophenyl)-5-(methoxycarbonyl)-2-(thiazol-2-yl)-3,6-dihydropyrimidin-4-yl)piperidin-1-yl)thiazole-5-carboxylic Acid], which EC50 (HBV; [2]) is on record?
A: 9.1 nM

Q: What about the CC50 at 6 days [1] of the same molecule?
A: 9480 nM

Q: For COC(=O)C1=C(C2CCN(c3ncc(C(=O)O)s3)CC2)NC(c2nccs2)=NC1c1cccc(F)c1Br (single isomer, unassigned) [II-83-B, 2-(4-(6-(2-Bromo-3-fluorophenyl)-5-(methoxycarbonyl)-2-(thiazol-2-yl)-3,6-dihydropyrimidin-4-yl)piperidin-1-yl)thiazole-5-carboxylic Acid], which EC50 (HBV; [2]) is on record?
A: 16 nM

Q: And the CC50 at 6 days [1]?
A: 2840 nM

Q: With COC(=O)C1=C(C2CCN(c3ncc(C(=O)O)s3)CC2)NC(c2nccs2)=NC1c1ccc(F)cc1Br (single isomer, unassigned) [II-84-B, 2-(4-(6-(2-Bromo-4-fluorophenyl)-5-(methoxycarbonyl)-2-(thiazol-2-yl)-3,6-dihydropyrimidin-4-yl)piperidin-1-yl)thiazole-5-carboxylic Acid] as the molecule, how does the EC50 (HBV; [2]) read?
A: 6.4 nM

Q: And the CC50 at 6 days [1]?
A: 14900 nM

Q: For CCOC(=O)C1=C(C2CCN(c3nc(C(=O)O)co3)C2)NC(c2nccs2)=NC1c1ccc(F)c(F)c1Cl (single isomer, unassigned) [II-85-A, 2-(3-(6-(2-chloro-3,4-difluorophenyl)-5-(ethoxycarbonyl)-2-(thiazol-2-yl)-3,6-dihydropyrimidin-4-yl)pyrrolidin-1-yl)oxazole-4-carboxylic Acid], which EC50 (HBV; [2]) is on record?
A: 720 nM

Q: What about the CC50 at 6 days [1] of the same molecule?
A: 4490 nM

Q: With CCOC(=O)C1=C(C2CN(c3nc(C(=O)O)co3)C2)NC(c2nccs2)=NC1c1ccc(F)c(F)c1Cl (single isomer, unassigned) [II-86-B, 2-(3-(6-(2-Chloro-3,4-difluorophenyl)-5-(ethoxycarbonyl)-2-(thiazol-2-yl)-3,6-dihydropyrimidin-4-yl)azetidin-1-yl)oxazole-4-carboxylic Acid] as the molecule, how does the EC50 (HBV; [2]) read?
A: 2870 nM

Q: And the CC50 at 6 days [1]?
A: 9400 nM

Q: Which results are given for COC(=O)C1=C(C2CN(C(=O)c3ccccc3)C2)NC(c2nccs2)=NC1c1ccc(F)cc1Cl (single isomer, unassigned) [II-87-A, Methyl 6-(1-benzoylazetidin-3-yl)-4-(2-chloro-4-fluorophenyl)-2-(thiazol-2-yl)-1,4-dihydropyrimidine-5-carboxylate]?
A: EC50 (HBV; [2]): 4020 nM; CC50 at 6 days [1]: 9860 nM

Q: For COC(=O)C1=C(C2CN(C(=O)c3cnoc3C)C2)NC(c2nccs2)=NC1c1ccc(F)cc1Cl (single isomer, unassigned) [II-88-B, methyl 4-(2-chloro-4-fluorophenyl)-6-(1-(5-methylisoxazole-4-carbonyl)azetidin-3-yl)-2-(thiazol-2-yl)-1,4-dihydropyrimidine-5-carboxylate], which EC50 (HBV; [2]) is on record?
A: 2050 nM

Q: What about the CC50 at 6 days [1] of the same molecule?
A: 9960 nM

Q: What does the source list for COC(=O)C1=C(C2CCN(c3cc(C(=O)O)c(C)cn3)CC2)NC(c2nccs2)=NC1c1ccc(F)cc1Cl (single isomer, unassigned) [II-89-B, 2-(4-(6-(2-Chloro-4-fluorophenyl)-5-(methoxycarbonyl)-2-(thiazol-2-yl)-3,6-dihydropyrimidin-4-yl)piperidin-1-yl)-5-methylisonicotinic Acid]?
A: EC50 (HBV; [2]): 9 nM; CC50 at 6 days [1]: 20300 nM

Q: Which results are given for COC(=O)C1=C(C2CCN(c3ncc(N4CCC(C(=O)O)CC4)cn3)CC2)NC(c2nccs2)=NC1c1ccc(F)cc1Cl (single isomer, unassigned) [II-90-B, 1-(2-(4-(6-(2-chloro-4-fluorophenyl)-5-(methoxycarbonyl)-2-(thiazol-2-yl)-3,6-dihydropyrimidin-4-yl)piperidin-1-yl)pyrimidin-5-yl)piperidine-4-carboxylic acid]?
A: EC50 (HBV; [2]): 5.4 nM; CC50 at 6 days [1]: 19000 nM

Q: With COC(=O)C1=C(C2CCN(c3ncc(N(C)C)c(C(=O)O)n3)CC2)NC(c2nccs2)=NC1c1ccc(F)c(F)c1Cl (single isomer, unassigned) [II-91-B, 2-(4-(6-(2-chloro-3,4-difluorophenyl)-5-(methoxycarbonyl)-2-(thiazol-2-yl)-3,6-dihydropyrimidin-4-yl)piperidin-1-yl)-5-(dimethylamino)pyrimidine-4-carboxylic Acid] as the molecule, how does the EC50 (HBV; [2]) read?
A: 12 nM

Q: What about the CC50 at 6 days [1] of the same molecule?
A: 26100 nM

Q: With COC(=O)C1=C(C2CCN(c3ncc(N)c(C(=O)O)n3)CC2)NC(c2nccs2)=NC1c1ccc(F)c(F)c1Cl (single isomer, unassigned) [II-92-B, 5-amino-2-(4-(6-(2-chloro-3,4-difluorophenyl)-5-(methoxycarbonyl)-2-(thiazol-2-yl)-3,6-dihydropyrimidin-4-yl)piperidin-1-yl)pyrimidine-4-carboxylic Acid] as the molecule, how does the EC50 (HBV; [2]) read?
A: 7 nM

Q: And the CC50 at 6 days [1]?
A: 18300 nM

Q: With COC(=O)C1=C(C2CCN(c3cc(C(=O)O)c(N(C)C)cn3)CC2)NC(c2nccs2)=NC1c1ccc(F)c(F)c1Cl (single isomer, unassigned) [II-93-B, 2-(4-(6-(2-chloro-3,4-difluorophenyl)-5-(methoxycarbonyl)-2-(thiazol-2-yl)-3,6-dihydropyrimidin-4-yl)piperidin-1-yl)-5-(dimethylamino)isonicotinic Acid] as the molecule, how does the EC50 (HBV; [2]) read?
A: 6.6 nM

Q: And the CC50 at 6 days [1]?
A: 28900 nM

Q: With COC(=O)C1=C(C2CCN(c3ncc(C)c(C(=O)O)n3)CC2)NC(c2nccs2)=NC1c1ccc(F)c(F)c1C (single isomer, unassigned) [II-94-B, 2-(4-(6-(3,4-Difluoro-2-methylphenyl)-5-(methoxycarbonyl)-2-(thiazol-2-yl)-3,6-dihydropyrimidin-4-yl)piperidin-1-yl)-5-methylpyrimidine-4-carboxylic Acid] as the molecule, how does the EC50 (HBV; [2]) read?
A: 6.1 nM

Q: And the CC50 at 6 days [1]?
A: 26800 nM
